The results in this text go back to US9504675B2, “Alpha-ketoheterocycles and methods of making and using” (The Scripps Research Institute, priority 2011, dated 2016).

As usually defined, the Ki is a measure of affinity in units of concentration, obtained from inhibition or displacement.

The target of this assay is T1, recombinant rat FAAH (rFAAH) (Rattus norvegicus, UniProt P97612).
T1 construct: The truncated rat FAAH (rFAAH) was expressed in E. coli and purified; made in house; host or cells: Escherichia coli
T1 sequence (P97612 30-579 limits assumed): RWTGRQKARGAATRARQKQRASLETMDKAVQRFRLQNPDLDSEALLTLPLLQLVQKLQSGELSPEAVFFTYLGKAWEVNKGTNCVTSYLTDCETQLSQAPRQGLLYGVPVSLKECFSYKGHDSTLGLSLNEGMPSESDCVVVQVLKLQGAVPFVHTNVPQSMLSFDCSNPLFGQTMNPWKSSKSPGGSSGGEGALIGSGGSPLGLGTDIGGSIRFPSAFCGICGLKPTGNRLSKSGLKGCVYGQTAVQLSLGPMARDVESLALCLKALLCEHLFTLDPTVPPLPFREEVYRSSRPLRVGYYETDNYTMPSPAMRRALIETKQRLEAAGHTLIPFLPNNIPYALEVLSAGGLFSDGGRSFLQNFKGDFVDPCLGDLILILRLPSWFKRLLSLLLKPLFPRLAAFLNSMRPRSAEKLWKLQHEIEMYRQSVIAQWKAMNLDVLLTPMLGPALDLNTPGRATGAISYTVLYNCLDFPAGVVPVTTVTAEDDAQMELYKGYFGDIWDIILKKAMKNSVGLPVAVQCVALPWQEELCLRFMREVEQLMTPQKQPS
The assay can be described thus: Enzyme assay: inhibition of purified recombinant rat FAAH, 14C-oleamide hydrolysis, Ki by Dixon plot. In kind it is biochemical. The method, then: Enzyme assays were performed at 20-23° C. with purified recombinant rat FAAH expressed in Escherichia coli or with solubilized COS-7 membrane extracts from cells transiently transfected with human FAAH cDNA (where specifically indicated) in a buffer of 125 mM Tris/1 mM EDTA/0.2% glycerol/0.02% Triton X-100/0.4 mM Hepes, pH 9.0.
^14C-labeled oleamide was prepared from ^14C-labeled oleic acid. The truncated rat FAAH (rFAAH) was expressed in E. coli and purified. The purified recombinant rFAAH was used in the inhibition assays unless otherwise indicated. The full-length human FAAH (hFAAH) was expressed in COS-7 cells as described, and the lysate of hFAAH-transfected COS-7 cells was used in the inhibition assays where explicitly indicated.
The inhibition assays were performed as follows. […] The enzyme reaction was terminated by transferring 20 μL of the reaction mixture to 500 μL of 0.1 N HCl at three different time points. The ^14C-labeled oleamide (substrate) and oleic acid (product) were extracted with EtOAc and analyzed by TLC as detailed. The Ki of the inhibitor was calculated using a Dixon plot as described (standard deviations are provided in the Supporting Information tables).

[1] abbreviates: Table 2, (S)-enantiomer, 1,2,3,4-tetrahydronaphthalene C2 acyl side chain.
Setting [2] is: Table 2, (R)-enantiomer, 1,2,3,4-tetrahydronaphthalene C2 acyl side chain.
The mark [3] stands for this setting: Table 3, (R)-enantiomer, indane C2 acyl side chain.
Setting [4] is: Table 4, (R)-enantiomer, additional FAAH inhibitors.
Where [5] appears, read: Table 4, (S)-enantiomer, additional FAAH inhibitors.
Setting [6] is: Table 3, tentatively assigned (S)-enantiomer, indane C2 acyl side chain.

For the compound `N#Cc1cnc(C(=O)C2CCc3cc(-c4ccccc4)ccc3C2)o1` (single isomer, unassigned) [(S)-5, 2-(6-Phenyl-1,2,3,4-tetrahydronaphthalene-2-carbonyl)oxazole-5-carbonitrile], under setting [1], the Ki was 0.0034 µM. In the case of `COC(=O)c1cnc(C(=O)C2CCc3cc(Oc4ccccc4)ccc3C2)o1` (single isomer, unassigned) [(R)-10, Methyl 2-(6-Phenoxy-1,2,3,4-tetrahydronaphthalene-2-carbonyl)oxazole-5-carboxylate], the Ki under setting [2] came out at 0.059 µM. On to `O=C(c1ncco1)C1Cc2ccc(Oc3ccccc3)cc2C1` (single isomer, unassigned) [(R)-26, Oxazol-2-yl(5-phenoxyindan-2-yl)methanone], for which, under setting [3], the inhibition constant (Ki) stood at 0.2 µM. In the case of `O=C(c1ncc(-c2ccccn2)o1)C1CCc2cc(-c3ccccc3)ccc2C1` (single isomer, unassigned) [(R)-6, (6-Phenyl-1,2,4-tetrahydronaphthalen-2-yl)(5-(pyridin-2-yl)oxazol-2-yl)methanone], under setting [2], the Ki amounted to 0.24 µM. On to `O=C(c1ncc(-c2ccccn2)o1)C1Cc2ccc(OCc3ccccc3)cc2C1` (single isomer, unassigned) [(R)-31, (5-(Benzyloxy)indan-2-yl)(5-(pyridin-2-yl)oxazol-2-yl)methanone], for which the Ki under setting [3] turned out to be 0.11 µM. With `O=C(c1ncco1)C1CCc2ccccc2C1` (single isomer, unassigned) [(R)-37, Oxazol-2-yl(1,2,3,4-tetrahydronaphthalen-2-yl)methanone], under setting [4], the Ki turned out to be 12 µM.

Regarding `N#Cc1cnc(C(=O)C2CCc3cc(OCc4ccccc4)ccc3C2)o1` (single isomer, unassigned) [(S)-17, 2-(6-(Benzyloxy)-1,2,3,4-tetrahydronaphthalene-2-carbonyl)oxazole-5-carbonitrile], the Ki under setting [1] worked out at 0.0032 µM. `O=C(c1ncc(-c2ccccn2)o1)C1CCc2cc(OCc3ccccc3)ccc2C1` (single isomer, unassigned) [(R)-18, (6-(Benzyloxy)-1,2,3,4-tetrahydronaphthalen-2-yl)(5-(pyridin-2-yl)oxazol-2-yl)methanone]: under setting [2], the Ki came out at 0.3 µM. On the same count and under the same terms, the same measure for `O=C(O)c1cccc(-c2cnc(C(=O)C3CCc4cc(OCc5ccccc5)ccc4C3)o2)n1` (single isomer, unassigned) [(R)-20, 6-(2-(6-(Benzyloxy)-1,2,3,4-tetrahydronaphthalene-2-carbonyl)oxazol-5-yl)picolinic acid]: 0.74 µM. Same read-out and setting: the same measure for `COC(=O)c1cnc(C(=O)C2CCc3cc(OCc4ccccc4)ccc3C2)o1` (single isomer, unassigned) [(R)-16, Methyl 2-(6-(Benzyloxy)-1,2,3,4-tetrahydronaphthalene-2-carbonyl)oxazole-5-carboxylate]: 0.053 µM; for `O=C(c1ncco1)C1CCc2cc(OCc3ccccc3)ccc2C1` (single isomer, unassigned) [(R)-15, (6-(Benzyloxy)-1,2,3,4-tetrahydronaphthalen-2-yl)(oxazol-2-yl)methanone]: 0.087 µM. As to `O=C(c1ncc(-c2ccccn2)o1)C1CCc2ccccc2C1` (single isomer, unassigned) [(S)-38, (5-(Pyridin-2-yl)oxazol-2-yl)(1,2,3,4-tetrahydronaphthalen-2-yl)methanone], the Ki under setting [5] is 0.43 µM. With `O=C(c1ncc(-c2ccccn2)o1)C1CCc2ccccc2C1` (stereo not shown) [Compound 38, (5-(Pyridin-2-yl)oxazol-2-yl)(1,2,3,4-tetrahydronaphthalen-2-yl)methanone], the “Ki relative to the FAAH inhibitor lacking the conformational constraints (Ki=200 nM)” value worked out at 2 fold and the Ki stood at 0.43 µM. With `O=C(c1ncco1)C1CCc2ccccc2C1` (stereo not shown) [Compound 37, Oxazol-2-yl(1,2,3,4-tetrahydronaphthalen-2-yl)methanone], the “improvement in potency relative to the corresponding oxazole 9” value ((S)-enantiomer) is on record as 4-5 fold. Also, the Ki runs as follows: (first of the two enantiomers, text b169, enantiomer distinction 5.1 vs 12 μM) 5.1 µM; (second of the two enantiomers, text b169, enantiomer distinction 5.1 vs 12 μM) 12 µM. The “potency of more active (S)-enantiomer over (R)-enantiomer” value (ratio of FAAH inhibition between enantiomers) was “ca. 2 fold”. With `COC(=O)c1cccc(-c2cnc(C(=O)C3Cc4ccc(Oc5ccccc5)cc4C3)o2)n1` (single isomer, unassigned) [(S)-28], the Ki under setting [6] came to 0.098 µM. Turning to `O=C(c1ncco1)C1CCc2cc(OCc3ccccc3)ccc2C1` (single isomer, unassigned) [(S)-15, (6-(Benzyloxy)-1,2,3,4-tetrahydronaphthalen-2-yl)(oxazol-2-yl)methanone], under setting [1], the Ki stood at 0.0061 µM. Turning to `O=C(O)c1cccc(-c2cnc(C(=O)C3Cc4ccc(-c5ccccc5)cc4C3)o2)n1` (racemic) [Compound 25, 6-[2-(5-Phenylindane-2-carbonyl)oxazol-5-yl]pyridine-2-carboxylic Acid], under “Table 3, racemate (enantiomers not separable), indane C2 acyl side chain”, the Ki stood at 0.057 µM. On to `O=C(O)c1cccc(-c2cnc(C(=O)C3Cc4ccc(OCc5ccccc5)cc4C3)o2)n1` (single isomer, unassigned) [(R)-33, 6-(2-(5-(Benzyloxy)indane-2-carbonyl)oxazol-5-yl)picolinic acid], for which the Ki under setting [3] is 0.66 µM. Same read-out and setting: the same measure for `O=C(c1ncco1)C1Cc2ccc(-c3ccccc3)cc2C1` (single isomer, unassigned) [(R)-22, Oxazol-2-yl(5-phenylindan-2-yl)methanone]: 0.14 µM. On to `COC(=O)c1cccc(-c2cnc(C(=O)C3CCc4cc(Oc5ccccc5)ccc4C3)o2)n1` (single isomer, unassigned) [(R)-13, Methyl 6-(2-(6-Phenoxy-1,2,3,4-tetrahydronaphthalene-2-carbonyl)oxazol-5-yl)picolinate], for which the Ki under setting [2] is 0.87 µM.

Consider `O=C(c1ncco1)C1Cc2ccc(-c3ccccc3)cc2C1` (single isomer, unassigned) [(S)-22, Oxazol-2-yl(5-phenylindan-2-yl)methanone], for which, under setting [6], the Ki is 0.027 µM. Consider `COC(=O)c1cccc(-c2cnc(C(=O)C3Cc4ccc(OCc5ccccc5)cc4C3)o2)n1` (single isomer, unassigned) [(S)-32, Methyl 6-(2-(5-(Benzyloxy)indane-2-carbonyl)oxazol-5-yl)picolinate], for which the inhibition constant Ki under setting [6] came to 0.0058 µM. `O=C(c1ncco1)C1CCc2ccccc2C1` (single isomer, unassigned) [(S)-37, Oxazol-2-yl(1,2,3,4-tetrahydronaphthalen-2-yl)methanone]: under setting [5], the Ki turned out to be 5.1 µM.

Regarding `COC(=O)c1cnc(C(=O)C2CCc3cc(Oc4ccccc4)ccc3C2)o1` (single isomer, unassigned) [(S)-10, Methyl 2-(6-Phenoxy-1,2,3,4-tetrahydronaphthalene-2-carbonyl)oxazole-5-carboxylate], under setting [1], the Ki came out at 0.0054 µM. As for `O=C(c1ncco1)C1CCc2cc(Oc3ccccc3)ccc2C1` (single isomer, unassigned) [(S)-9, Oxazol-2-yl(6-phenoxy-1,2,3,4-tetrahydronaphthalen-2-yl)methanone], the Ki under setting [1] was 0.0022 µM. Take `O=C(c1nnco1)C1CCc2cc(Oc3ccccc3)ccc2C1` (single isomer, unassigned) [(R)-34, (1,3,4-Oxadlazol-2-yl)(6-phenoxy-1,2,3,4-tetrahydronaphthalen-2-yl)methanone]: under setting [4], the Ki turned out to be 0.0014 µM. Take `COC(=O)c1cccc(-c2cnc(C(=O)C3Cc4ccc(OCc5ccccc5)cc4C3)o2)n1` (single isomer, unassigned) [(R)-32, Methyl 6-(2-(5-(Benzyloxy)indane-2-carbonyl)oxazol-5-yl)picolinate]: the Ki under setting [3] was determined as 0.13 µM. `O=C(c1ncc(-c2ccccn2)o1)C1Cc2ccc(Oc3ccccc3)cc2C1` (single isomer, unassigned) [(R)-27, (5-Phenoxyindan-2-yl)(5-(pyridin-2-yl)oxazol-2-yl)methanone]: the Ki under setting [3] worked out at 0.042 µM. `N#Cc1cnc(C(=O)C2CCc3cc(-c4ccccc4)ccc3C2)o1` (single isomer, unassigned) [(R)-5, 2-(6-Phenyl-1,2,3,4-tetrahydronaphthalene-2-carbonyl)oxazole-5-carbonitrile]: under setting [2], the Ki was determined as 0.062 µM. Take `COC(=O)c1cccc(-c2cnc(C(=O)C3CCc4cc(Oc5ccccc5)ccc4C3)o2)n1` (single isomer, unassigned) [(S)-13, Methyl 6-(2-(6-Phenoxy-1,2,3,4-tetrahydronaphthalene-2-carbonyl)oxazol-5-yl)picolinate]: the Ki under setting [1] amounted to 0.0022 µM.
